Earlier results on one substance are cited in patent US20140113883A1, “Therapeutic micro nutrient composition for lipolysis and sclerosis” (priority 2008, published 2014).

This data set deals with red blood cells.

As to Lysolecithin, the hemolytic properties result is “strong hemolytic properties”.
